The text below walks through data of US10201532B2, “Compounds and their use” (ALLECRA THERAPEUTICS GMBH, priority 2010, dated 2019).

The subject of assay [1] is K. pneumoniae NCTC 13438 (KPC3). The assay is described as follows: Synergistic broth micro-dilution MIC. Type of assay: cell-based, Klebsiella pneumoniae. The note with it: Klebsiella pneumoniae, NCTC13438, no BLI, read-out: MIC of imipenem, No BLI. (In general: In broth dilution the organism is exposed to a series of concentrations in liquid medium.)
Assay [2] deals with KPC2 K. pneumoniae ATCC BAA 1705. The assay can be described thus: Neutropenic mice thigh infection model (human adapted model). The note with it: Imipenem 140 mg/kg fractionated over 5.5 h; end point 6 h. Type of assay: in vivo. As to the method:
Female Swiss Albino mice weighing 24-30 g were used for all studies. Study protocols were reviewed and approved by Institutional Animal Ethical Committee, Orchid Research Laboratories Limited. Mice were rendered neutropenic by intra-peritoneal cyclophosphamide injections. Log phase culture in brain heart infusion broth was injected in to mice thighs. Imipenem or Doripenen alone or in combination were administered sub-cutaneously in decreasing fractionated doses every 15 minutes over the period of 5.5 h (Flückiger, U. et al. “Integration of pharmacokinetics and pharmacodynamics of Imipenem in a human-adapted mouse model’. Antimicrobial Agents and Chemother, 1991, 35(9): 1905-1910). The Compound-1 or tazobactam was administered sub-cutaneously as bolus dose at the start of dosing. Efficacy end point was 6 h in Imipenem studies and 8 h in Doripenen studies.
Three experiments were carried out where Doripenen alone or in combination with compound-1 or tazobactam (two experiments) were evaluated. Doripenem 70 mg/kg was administered in fractionated doses over the period of 5.5 h (Fluckiger, U. et al. “Integration of pharmacokinetics and pharmacodynamics of Imipenem in a human-adapted mouse model’. Antimicrobial Agents and Chemother., 1991, 35(9): 1905-1910). Compound-1 or tazobactam was administered as bolus dose at initiation of therapy. Efficacy end point was 8 h after initiation of therapy.

Assay [3] deals with E. coli Ecoli233 (KPC3). The assay is described as follows: Disk zone of inhibition, antibiotic + Compound-1 on same disk (Methodology 2). Type of assay: cell-based, Escherichia coli. Conditions: CAZ 30 μg or IPM 10 μg disk alone. The text has this:
(§1) In this experiment, Compound-1 is used as a diagnostic reagent for the detection of β-lactamases belonging to the families KPC & ESBL (e.g., SHV18) producing Enterobacteriaceae. A simple set of absorbent paper disks impregnated with antibiotic on agar medium is used for the detection.
(§2) • 0.5 McFarland of the test organism was inoculated at 1:10 dilution on Muller • Hinton Agar plates • Test organisms: Klebsiella pneumoniae (K.p) ATCC BAA-1705, Klebsiella pneumoniae ATCC 700603, Escherichia coli (E.c) Ecoli233 • Carbapenem (e.g., Imipenem [IPM] 10 μg) and cephalosporin (e.g., Ceftazidime [CAZ] 30 μg) paper disks (7 mm) were placed on the inoculated agar plates • Compound-1 (60 μg) disk was placed at a distance of 7 & 10 mm from the carbapenem and cephalosporin disks. • The presence of expressed carbapenemases or ESBLs was measured as the expansion of Imipenem or Ceftazidime's inhibition zones due to synergy in the presence of Compound-1.
(§3) The methodology remains the same as Methodology 1 except the following change • Compound-1 (60 μg) was added on the same disk in combination with a carbapenem (e.g., Imipenem 10 μg) or cephalosporin (e.g., Ceftazidime 30 μg) and placed on the inoculated agar plate. • The presence of the expressed carbapenemases or ESBLs was measured as an increase in Imipenem or Ceftazidime's zone diameter in combination with Compound-1 compared to antibiotic alone. Results

The subject of assay [4] is E. coli Ecoli233 (KPC3). The assay is described as follows: Synergistic broth micro-dilution MIC. The format is cell-based, Escherichia coli. The note with it: Escherichia coli, no BLI, read-out: MIC of imipenem, No BLI.
Assay [5] concerns K. pneumoniae UMM3 (KPC2). The assay is described as follows: Synergistic broth micro-dilution MIC. The format is cell-based, Klebsiella pneumoniae. The note with it: Klebsiella pneumoniae, no BLI, read-out: MIC of imipenem, No BLI.
Assay [6] concerns K. pneumoniae ATCC 700603 (SHV18). The assay is described as follows: Disk zone of inhibition, antibiotic + Compound-1 on same disk (Methodology 2). Type of assay: cell-based, Klebsiella pneumoniae. The note with it: CAZ 30 μg or IPM 10 μg disk alone.
Description: as §1
as §2, with “Compound-1. Results:” for “Compound-1.”
as §3

Assay [7] concerns E. cloacae 01 MGH 049 (KPC2, AmpC). The assay is described as follows: Synergistic broth micro-dilution MIC. Type of assay: cell-based. Conditions: Enterobacter cloacae, no BLI, read-out: MIC of imipenem, No BLI.
For assay [8], the system named is E. coli ATCC 25922 (β-lac-ve). The assay can be described thus: Disk zone of inhibition, antibiotic + Compound-1 on same disk (Methodology 2). The format is cell-based, Escherichia coli. The note with it: CAZ 30 μg or IPM 10 μg disk alone; ATCC 25922.
Assay [9] deals with KPC-2 producing K. pneumoniae (ATCC BAA-1705). The assay can be described thus: Synergistic broth micro-dilution MIC (checkerboard). The format is cell-based, Klebsiella pneumoniae. Conditions: Klebsiella pneumoniae, ATCCBAA1705, no BLI; ATCC BAA-1705; read-out: MIC of antibiotic alone (no BLI).
In assay [10] the test system is KPC-3 expressing E. coli (J53 R6206). The description is as above. The format is cell-based, Escherichia coli. The note with it: no BLI.
For assay [11], the system named is K. pneumoniae ATCC BAA-1705 (KPC2). The assay can be described thus: Disk zone of inhibition, antibiotic + Compound-1 on same disk (Methodology 2). The format is cell-based, Klebsiella pneumoniae. Conditions: CAZ 30 μg or IPM 10 μg disk alone.
Description: as §1, §2, §3

Assay [12] concerns KPC2 K. pneumoniae ATCC BAA 1705. The assay can be described thus: Mice systemic infection model. Type of assay: in vivo. Conditions: Klebsiella pneumoniae, BAA1705; mice, sub-cutaneous; with cilastatin; read-out: ED50 of Imipenem alone. As to the method:
Female Swiss Albino mice, weighing 18-22 g were used for all studies. For each dose group, 5 or 6 mice were included. Study protocols were reviewed and approved by Institutional Animal Ethical Committee, Orchid Research Laboratories Limited. Mice were housed in individually ventilated cages provided with food and water ad libitum, throughout the study period. From overnight culture in Brain-Heart Infusion agar medium, challenge inoculum with required bacterial density was prepared in normal saline containing Hog gastric mucin. In studies involved with doripenem, washed bacterial cells was used. Each mouse was infected […] inoculum by intra-peritoneal injection.
Infected mice were dosed sub-cutaneously, with drug preparations at three different time points post-infection.
Imipenem with BLI combinations: Increasing concentrations of Imipenem as single agent or in combination with fixed concentration of BLIs were used to dose infected mice, sub-cutaneously. In this experiment Imipenem was always administered along with cilastatin. Doripenem with BLI combinations: Increasing concentrations of doripenem as single agent or in combination with fixed concentration of BLIs were used to dose infected mice, sub-cutaneously.
Survival of the treated mice were monitored twice a day, up to 7 days post-infection. Efficacy dose 50 (ED50) was calculated by Reed and Muench method (Reed, L. J.; Muench, H. “A simple method of estimating fifty percent endpoints”. The American Journal of Hygiene, 1938, 27: 493-497.).

The MIC is the lowest concentration that inhibits growth of the organism. As a reminder, the ED50 is the midpoint of the dose-response relation. For the molecule `C[C@@H](O)[C@H]1C(=O)N2C(C(=O)O)=C(SCCN=CN)C[C@H]12` [Imipenem], the MIC in assay [1] is 128 µg/mL; with E. coli Ecoli233 (KPC3) [4] it was 16 µg/mL; in [5] it was 8 µg/mL; in assay [7] it was 8 µg/mL; in assay [9] it was 32 to 64 µg/mL. In addition, in assay [2], the “Bacterial load, Imipenem alone” value is 6.8E+06 CFU/thigh. The “Zone of inhibition (ZOI), antibiotic alone” value turned out to be 14 mm in the assay with E. coli Ecoli233 (KPC3) [3], 25 mm in assay [6], 26.5 mm in [8] and 14.5 mm in assay [11]. In addition, the “MIC of antibiotic alone (no BLI)” value in [10] is 2 to 4 µg/mL. In addition, in [12], the ED50 came out at 8.9 mg/kg.
